In patent publication US20050182002A1, “Agents which interact with a serotonin transporter for the treatment of cancer” (priority 2002, published 2005):
Where two headings read alike, the source gives them in different places.

Experiments:
[1] = tested on: non-BL lines Nalm-6, RPMI 8226, Jurkat, J10, and CEM; assay: DNA synthesis (3H-Thymidine incorporation) in non-BL lines; format: cell-based; settings: data not shown
[2] = tested on: L3055 BL cells; assay: Annexin V binding (phosphatidylserine exposure), FACS; format: cell-based; settings: fluoxetine 20 μM, 17 h, 10^6/ml, Means ± SE of 3
Excerpt: Annexin V binding to phosphatidylserine exposed on the outer leaflet of cells to signal for phagocytic engulfment is another commonly used measure of programmed death although caution should be applied when using as a sole indicator for assessing apoptosis in B cells.

[3] = tested on: biopsylike BL cells; assay: Real-time RT-PCR gene expression; format: cell-based; settings: data not shown
Excerpt: BL is characterised by translocations of one c-myc allele to one of the immunoglobulin loci and the extraordinarily high growth rate that characterises these tumours reflects the pro-proliferative actions of the translocated gene. Despite its hallmark translocation to immunoglobulin loci, the BL-associated constitutive expression of c-myc remains dependent on the binding of the recognised c-myc transcription factor Nm23-H2 to a PuF site within the regulatory sequence of the translocated gene.

[4] = tested on: biopsylike BL cells; assay: PARP-1 cleavage; format: cell-based; settings: 20 μM fluoxetine
[5] = tested on: L3055 cells; assay: Caspase activity (FAM-VAD-FMK, FACS); format: cell-based; settings: single dose for 24 hours; fluoxetine 10 μM, paroxetine 10 μM, citalopram 100 μM
Protocol: Caspase activity was detected using the CaspaTag Caspase Activity Kit (Intergen, Oxford, UK). Cells cultured under the conditions indicated below were harvested into 300 μl of culture medium at a cell density of 10^6cells/ml, followed by the addition of […] of a 30×working solution of FAM-VAD-FMK (a carboxy fluorescent tagged caspase inhibitor) (Intergen Co., USA). Cells were then incubated for 1 hr at 37° C. under 5% CO2 while protecting the tubes from light. At the end of the incubation, they were washed twice in 2 ml of 1×washing buffer, followed by addition of 2 μl of PI to distinguish dead cells from live cells, then analysed on an EPICS XL-MCL flow cytometer or by confocal microscopy. For the latter, treated cells were harvested into 300 μl of culture medium containing 10 μl of FAM-VAD-FMK before incubating for 1 hr under the conditions described above. Next, 1.5 μl of Hoechst 33342 stain was added for 5 min, and cells were washed twice in 2 ml of 1×washing buffer following the addition of 1 μl of PI.

[6] = tested on: L3055 BL cells; assay: TUNEL DNA strand breaks, FACS; format: cell-based; settings: fluoxetine 20 μM, 17 h, 10^6/ml; Means ± SE of 3; control 17.8 ± 3.7
Excerpt: Neither BL cells nor their normal germinal centre B cell equivalents tended to produce the extensive “DNA ladders” that can be seen as a result of DNA fragmentation when other cells (e.g. thymocytes) undergo apoptosis.

[7] = tested on: actively cycling tonsilar B cells; assay: DNA synthesis in actively cycling tonsilar B cells; format: cell-based; settings: overnight fluoxetine up to 20 μM after 2 days stimulation with SAC (± CD40L) or PMA (± ionomycin)
[8] = tested on: L3055 cells; assay: Intracellular free Ca2+; format: cell-based
Excerpt: The increase in intracellular free Ca^2+ is known to be an important step in the induction of apoptosis.

[9] = tested on: L3055 cells; assay: Syto 16 / propidium iodide staining (viable, apoptotic, necrotic); format: cell-based
Protocol: Changes in the viability of cells cultured under conditions indicated below were quantified by assessment of forward and 90° (side) light scatter of cells as previously described (Dive C, et al. Biochimica Biophysica Acta (1992); 1133:275-285) using an EPICS XL-MCL flow cytometer (Beckman Coulter, Miami, Fla., USA). Prior to analysis, cells were harvested into polythene FACS tubes, and fixed at 4° C. in 400 μl of FACS buffer [PBS with 5% NGS and 2% Formaldehyde] (BDH/MERCK). Cells were gated in two populations (viable and dead) according to their forward and side light scatter. Viability was expressed as a percentage of the total number of cells residing in the viable and non-viable gates. Cells were also analysed according to Schuurhuis et al (Schuurhuis G J, et al. Exp. Haematol. (1997); 25:754-759) in order to assess the percentages within treated populations of those that were viable, apoptotic, or necrotic. Syto 16 was added at a concentration of 250 nM in PBS to 500,000 cells and incubated at RT for 30 min, at which time 5 μg/ml propidium iodide (PI) was added. Samples were then analysed immediately by FACS and a 2D plot generated of syto 16 fluorescence versus PI fluorescence: syto 16 is taken up only by viable cells whereas Pi exclusively enters necrotic cells—syto 16^−ve/PI^−ve cells are deemed apoptotic.

[10] = tested on: normal peripheral blood mononuclear cells (PBMC); settings: 24 h
Excerpt: Patients on SSRI's for depression sustain their circulating levels for months on repeated administrations. Also, circulating levels are believed to represent a gross underestimation of the accumulation of SSRI in body tissues. The lymphoma are, by definition, tumours of lymphoid tissues (e.g. lymph nodes).

[11] = tested on: L3055 BL cells; assay: DNA synthesis by [3H]-thymidine incorporation in L3055 cells; format: cell-based
Protocol: DNA synthesis was determined by measuring ^3H-thymidine ([^3H]Tdr; Amersham, UK) incorporation into cellular DNA. Cells were cultured in 200 μL of supplemented medium at densities and for times indicated below in flat-bottomed, 96-well tissue culture plates (Becton Dickinson, Oxford, U K) then pulsed for the final 4 h with 50 μl of 10 μCi/ml [^3H]Tdr before harvesting on a Skatron cell harvester (Helis Bio Ltd, Newmarket, UK).

[12] = tested on: L3055 cells; assay: Cell cycle analysis (propidium iodide, flow cytometry); format: cell-based; settings: 24 hr; each at its maximal concentration (5-HT 150 μM, fluoxetine 10 μM, anti-μ chain antibody 10 μg/ml)
Protocol: Cells cultured under conditions indicated below were harvested into 100 μl of 1×PBS followed by 400 μl cell cycle buffer containing Triton X-100 and propidium iodide and left to incubate at 4° C. for 1 hr to allow staining of DNA. The degree of fluorescence emitted by bound PI is directly proportional to the amount of DNA in each cell and was measured by flow cytometry as previously described (MacDonald I, et al. Blood (1996); 87:1147-1154). Results are expressed as percentage of viable cells residing in each phase of the cycle.

inhibition of DNA synthesis in actively cycling B cells (in words) [7]: Little inhibition of DNA synthesis
SMILES: CNCCC(Oc1ccc(C(F)(F)F)cc1)c1ccccc1 (stereo not shown) [fluoxetine]
level of 3H-Thymidine incorporation in non-BL lines (in words) [1]: either no, or only minor reductions | Annexin V binding MFI ([2]; control 3.9 ± 0.2): 26.1 ± 8.4 | Annexin V binding % positive ([2]; control 52.3 ± 1.8): 81.1 ± 3.9% | reduction in levels of c-myc ([3]; 6 h exposure to fluoxetine): ~60% | reduction in levels of nm23-H2 ([3]; 6 h exposure to fluoxetine): ~60% | decrease in the expression of nm23-H1 mRNA ([3]; fluoxetine): 75% | PARP-1 cleavage (in words) [4]: extensive PARP-1 cleavage | effect on number of cells showing caspase activity (in words) [5]: significant effect on the numbers of cells showing caspase activity | % TUNEL positive [6]: 35.7 ± 7.6% | basal Ca2+ (in words) ([8]; data not shown): increase in basal Ca^2+ | levels of intracellular free Ca2+ (in words) ([8]; fluoxetine concentration range (FIG. 23)): sustained increase in the levels of intracellular free Ca^2+ | lymphoma cells entering apoptosis ([9]; fluoxetine 10-15 μM, 24 hours): about 40% | number of viable cells (syto 16+ve/PI−ve) (in words) ([9]; increasing concentrations, 24 hr): directly drove the lymphoma cells to die | viability of PBMC ([10]; 5 μM): 97.3±0.88% | viability of PBMC ([10]; 10 μM): 97.3±0.33% | influence of pre-treatment on 5-HT-dependent inhibition of DNA synthesis (in words) ([11]; cells pre-treated with agent before 5-HT): substantially reversed | effect on DNA synthesis (in words) ([11]; single dose, range of concentrations, [3H]-thymidine incorporation at 24 hr): dose dependent inhibitory effect | cell cycle status (in words) [12]: accumulation of arresting cells in the G0/G1 compartment
